Experimental data published in ChEMBL document CHEMBL1201862, “PubChem BioAssay data set” (2004).
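Test compounds were applied to cells in 96-well plates for 48 hours at 5 doses. Here, GI50 denotes the concentration required for 50% inhibition of growth.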 Activity calls are given as the source filed them. Cut-off read from the data, not from the text of the source: active = GI50 up to about 1.1 µM and inactive = higher.

Assays:
Experiment in all cases: inhibition of tumour cell growth, NCI panel, 48 h
MDA-MB-231 = test system: MDA-MB-231
EKVX = test system: EKVX
CAKI-1 = test system: CAKI-1
SNB-75 = test system: SNB-75
COLO 205 = test system: COLO 205
A549 = test system: A549
HT-29 = test system: HT-29
LOX IMVI = test system: LOX IMVI
SW-620 = test system: SW-620
HOP-92 = test system: HOP-92
A498 = test system: A498
SF-295 = test system: SF-295
MCF7 = test system: MCF7
CCRF-CEM = test system: CCRF-CEM
BT-549 = test system: BT-549
OVCAR-4 = test system: OVCAR-4
MOLT-4 = test system: MOLT-4
SF-539 = test system: SF-539
UACC-62 = test system: UACC-62
SNB-19 = test system: SNB-19

Measured: GI50

CC1CCOc2ccc(cc2)/C=N\c2ccc(cc2)CCc2ccc(cc2)/N=C\c2ccc(cc2)OCC1
inactive: MDA-MB-231 > 100 µM | EKVX > 100 µM | CAKI-1 > 100 µM | SNB-75 24.1 µM | COLO 205 > 100 µM | A549 > 100 µM | HT-29 > 100 µM | LOX IMVI > 100 µM | SW-620 > 100 µM | HOP-92 60.5 µM | A498 > 100 µM | SF-295 70.3 µM | MCF7 > 100 µM | CCRF-CEM 29.8 µM | BT-549 > 100 µM | OVCAR-4 > 100 µM | MOLT-4 > 100 µM | SF-539 > 100 µM | UACC-62 > 100 µM | SNB-19 > 100 µM

CN(/N=C/c1ccccn1)C1=NCCCN1
inactive: MDA-MB-231 > 100 µM | EKVX > 100 µM | CAKI-1 > 100 µM | SNB-75 > 100 µM | COLO 205 > 100 µM | A549 > 100 µM | HT-29 > 100 µM | LOX IMVI > 100 µM | SW-620 > 100 µM | HOP-92 > 100 µM | A498 91.6 µM | SF-295 > 100 µM | MCF7 > 100 µM | CCRF-CEM > 100 µM | BT-549 > 100 µM | OVCAR-4 > 100 µM | MOLT-4 > 100 µM | SF-539 > 100 µM | UACC-62 > 100 µM | SNB-19 > 100 µM
